Key:
[1] = test system: KKA^y mice; experiment: Antidiabetic activity in type 2 diabetic KKA^y mice; assay type: in vivo, mouse
Experimental: Prior to commencing treatment, all of the animals are bled from the tail vein and serum levels of glucose and triglyceride are measured in duplicate. The animals are then sorted into different treatment groups with equal average triglyceride levels. The animals are treated with a single daily oral dose of the test compound suspended in sesame oil (dose volume of 3 ml/kg).
In short, adult diabetic KKA^y mice are housed in a fixed 12—12-hr artificial light-dark cycle, and maintained on a standard rodent diet. Prior to commencing treatment, all of the animals are bled from the tail vein and serum levels of glucose and triglyceride are measured in duplicate. The animals are then sorted into different treatment groups with equal average triglyceride levels. The animals are treated with a single daily oral dose ranging from 3-30 mg/kg of the test compound suspended in sesame oil (dose volume of 3-5 ml/kg). Following one week of treatment the animals are bled from the tail vein and Serum glucose and triglycerides are measured in duplicate.
In this example, compound 1, which belongs to the novel subclass of RXR ligands is compared to a typical RXR ligand like compound 2 in the treatment of KKA^y mice.
For this study, adult diabetic KKA^y mice were housed in a fixed 12—12-hr artificial light-dark cycle, and maintained on a standard rodent diet. Prior to commencing treatment, all of the animals are bled from the tail vein and serum levels of glucose and triglyceride are measured in duplicate. The animals are then sorted into different treatment groups with equal average triglyceride levels. The animals are treated with a single daily oral dose of the test compound suspended in sesame oil (dose volume of 3 ml/kg).

[2] = test system: BALB/c mice; experiment: Effect on serum triglyceride levels in wild type BALB/c mice; assay type: in vivo, mouse; conditions: FIG. 12
Experimental: The animals were treated with a single daily oral dose of the test compound suspended in sesame oil (dose volume of 5 ml/kg). […], Animas treated with 10 and 30 mg/kg of Compound 1, which are doses that are 30 and 100 times the efficacious does in diabetic db/db mice, respectively, caused no increase in serum triglyceride levels compared to vehicle treated control animals.
Test compounds are tested in wild type mice at 10-100 times the efficacious dose in diabetic mice. Typically, adult male BALB/c mice are housed in a fixed 12—12-hr artificial light-dark cycle, and maintained on a standard rodent diet. The animals are treated with a single daily oral dose of the test compound suspended in sesame oil (dose volume of 5 ml/kg) as also described in the examples. Approximately two weeks later the animals are bled from the tail vein, then necropsied following sacrifice by carbon dioxide asphyxiation. Several serum biochemical parameters are measured. Of special significance is the effect the selected compounds have on serum triglyceride levels compared to vehicle treated control animals.
For these studies, adult male BALB/c mice were housed in a fixed 12—12-hr artificial light-dark cycle, and maintained on a standard rodent diet. The animals were treated with a single daily oral dose of the test compound suspended in sesame oil (dose volume of 5 ml/kg).

[3] = following one and two weeks of treatment

`Cc1cc2c(cc1-c1cc(C=C3SC(=O)NC3=O)ccc1OC(F)(F)F)C(C)(C)CCC2(C)C` [Compound 1] was tested, and the “serum glucose levels compared to vehicle treated control mice” value ([1]; 5 mg/kg, single daily oral dose in sesame oil, FIG. 10, p≦0.01) was “significant decrease”, the “serum triglyceride levels compared to vehicle treated control mice” value ([1]; 5 mg/kg, single daily oral dose, FIG. 11, p≦0.05) was “significant decrease” and the “Efficacious in KKAy Mice” value ([1]; efficacious = lowers glucose without increasing triglycerides) was “Yes”. The “glucose levels compared to vehicle treated control mice” value [1, 3] was “statistically significant decrease”, the “triglyceride levels compared to vehicle treated control mice” value [1, 3] was “statistically significant decrease” and the “serum triglyceride levels compared to vehicle treated control animals” value ([2]; 10 and 30 mg/kg, daily oral, 14 days) was “no increase”. For the same molecule, the “triglyceride levels compared to vehicle treated controls” value ([2]; 10 and 30 mg/kg/day for 10 days) was “does not change”.

From patent US7265139B2, “RXR activating molecules” (Incyte San Diego Inc., priority 2001, dated 2007)
